Experimental data as given in patent publication US20170354670A1, “PRODUCT COMPRISING GLUCOSAMINE FOR EXTERNAL APPLICATION” (Vital Medicine, LLC, priority 2016, published 2017).

Tested on: foot complaints (tired, achy, sore)
Experiment: Foot bath study of foot pain (100 mm visual analogue scale) versus sucrose sham
Format: in vivo, human
Text: Subjects: Normal healthy adults aged 40-75 with daily reported foot complaints (tired, achy, sore) that are not currently taking prescription or over the counter products for symptom relief. An attempt is made to recruit equal numbers of male and female participants. Sample Size: 40 subjects; 20 per group Treatment groups: Soothing foot bath topical fluid application apparatus (Glucosamine KCl), group A; Sham: Sucrose foot bath topical fluid application apparatus, group B. Methods: Recruitment—Questionnaire evaluating health status and foot complaints; including visual analogue scale evaluation of current pain state. Baseline—Questionnaire evaluating health status and foot complaints; including visual analogue scale evaluation of current pain state. Treatment—Subjects are randomly assigned to one of two treatment groups and asked to submerge their right foot in a plastic box that contains 3 liters of room temperature tap water and 2 liters of boiling water plus one packet (50 grams) of the labeled “treatment pack” and stirred until in solution. Label is removed from pack and placed on chart. Foot remains submerged and stopwatch set for 1 hour. At the end of 1 hour, subject foot is dried and subject is asked to mark on the line (100 mm) the current state of their foot pain upon standing. […]

N[C@H]1C(O)OC(CO)[C@@H](O)[C@@H]1O (stereo partly drawn) [glucosamine, (3R,4R,5S)-3-Amino-6-(hydroxymethyl)oxane-2,4,5-triol]
pain relief compared with sucrose sham, duration (72 hours after treatment, single 1 hour foot bath, 50 grams in 5 liters water, many subjects): greater pain relief | pain relief compared with sucrose sham (group B) (healthy adults aged 40-75 with daily foot complaints, right foot submerged 1 hour in 5 liters water with 50 grams treatment pack, visual analogue scale): sufficiently better pain relief
